Article PMC6145916, “Interaction of mitochondrial fission factor with dynamin related protein 1 governs physiological mitochondrial function in vivo” (Scientific Reports, 2018)
Where no end group is shown, it is not given here.

Legend:
wild-type MEFs = assay: Mitochondrial ROS (MitoSox), WT MEFs; type: cell-based, mouse; details: 4 µM P259 daily for three days, vs no peptide; 3 independent experiments, three technical replicates; *** p <0.001
From the text: (§1) Data are of 3 independent experiments with the whiskers calculated by the Turkey method. e. […]
(§2) production in an Mff -dependent manner. Mitochondrial reactive oxygen species production […]
(§3) treatment in each cell line. […]
(§4) determined by an unpaired, two -tailed t test). g. […]
(§5) control (no peptide treatment). Data are mean ± s.e. from 3 independent experiments.
(§6) Mitochondrial reactive oxygen species determination […]
and 1% penicillin-streptomycin solution (Corning, NY, USA). […]
(§7) and without phenol red. […] After incubation
(§8) HEPES, and without phenol red. […]
epifluorescence microscope with a 10X objective (Keyence). The Cy5 filter (Keyence) was used to autofocus on the mitochondria plane. […]
(§9) calculated as the average MitoSox signal per cell. […]

primary cortical neurons = assay: Mitochondrial ROS (MitoSox Red), primary cortical neurons; type: cell-based, rat; details: overnight treatment; n = 3, with 3 replicates
Method: (§10) Bottom, quantification of the form factor (degree of branching) and aspect ratio (major/minor axis length). At least 10,000 mitochondrial fragments were analyzed for each condition. Mitochondrial reactive oxygen species production (MitoSox Red) (b) and membrane potential (TMRM) (c) after overnight treatment with indicated concentrations of peptide (n = 3, with 3 replicates). […] Overlay of live microscopy imaging at time 0 (green) and 150 (red) seconds. […] An estimation of the % mobile mitochondria from the Pearson coefficient of each set of images. Data are mean ± s.e.
Following treatment, cells were washed with treatment media.
The Cy5 filter was used to autofocus on the mitochondria plane. Nuclei were imaged with a DAPI filter and the mitoROS (MitoSox) or membrane potential (TMRM) image was acquired with a TRITC filter. […] MitoROS was calculated as the average MitoSox signal per cell. The mitochondrial membrane potential was calculated as the average TMRM signal in the mitochondrial mask.
as §6
and 1% penicillin-streptomycin solution (Corning, NY, USA). Primary cortical neurons were treated with increasing concentrations of peptides in NbActiv1 media. HD Patient- and adult- […]
as §7, §8, §9

[1] = test system: Huntington's disease patient-derived fibroblasts; assay: Mitochondrial ROS (MitoSox) in HD patient-derived fibroblasts; type: cell-based, human; details: indicated peptide concentration daily for three days, normalized to healthy fibroblast control; 3 independent experiments
Method: (DNM1L) and MFF genes. a.
DNM1L and MFF throughout evolution. NCBI PSI -BLAST was performed for the human […]
corresponding to the human gene. c.
DNM1L and 7/7 isoforms of MFF. d. […]
affect mitochondrial fusion measured by photoconvertible den dra2 protein. Mito -dendra2 […]
The initial image following […]
species production (MitoSox). d.
as §1, §2, §3, §4, §5
(§11) Human neuroblastoma SH-SY5Y cells purchased from ATCC were cultured in a 50/50 mixture of […]
(§12) using SH-SY5Y cells were carried out in the same growth medium with the exception of using […]
(§13) Wild-type and MFF knockout mouse embryonic fibroblast (MEF) cells were generously provided by Professor David Chan. […]
(§14) an NCBI protein blast of the P259 sequence ([…]) was performed across the human genome database and the top 75 gene query hits were recorded.7 The orthologs of each available gene were obtained from the Ensembl database.8 Of the resulting 75 human gene hits, 37 had […]
as §9

Mff-Drp1 interaction = assay: Co-immunoprecipitation of Drp1 and Mff from SH-SY5Y cell lysate; type: cell-based, human; details: 1 µM, 1 hour, relative to TAT-carrier control; n = 3, with 2 replicates
[2] = test system: Drp1 with Fis1/Mid49/Mid51; assay: Co-immunoprecipitation of recombinant Drp1 with the other adaptors; type: binding; details: 1 µM P259, 2 hours at 4 °C, 200 ng Drp1, 200 ng adaptor, RIPA buffer; representative blot of two independent experiments
[3] = test system: E17 primary cortical neurons; assay: Mitochondrial morphology (Tom20), primary cortical neurons; type: cell-based, rat; details: 1 µM P259, two-hour treatment; n = 3, 10 images each
Method: as §10, §11, §12, §13, §14
The effect of peptides on GTPase activity of Drp1 was measured by incubating recombinant Drp1 […]
for 1 hour at 37 °C. GTPase activity was measured using a colorimetric GTPase assay kit (Novus Biologicals, CO, USA) as instructed by the manufacturer. […]

YGRKKRRQRRRGSGIIQLPEIVVV-NH2 (C-terminus assumed) [P259]
mitochondrial ROS production, WT MEFs (wild-type MEFs): increases mitochondrial ROS | mitochondrial ROS (primary cortical neurons): increased mitochondrial ROS | mitochondrial ROS [1]: further increased mitochondrial ROS | Mff-Drp1 interactions (co-IP) (Mff-Drp1 interaction): significant reduction in Mff-Drp1 interactions | binding of other receptors (Fis1, Mid49, Mid51) to co-immunoprecipitated recombinant Drp1 [2]: without affecting the binding of any other receptor | mitochondrial morphology [3]: more elongated and branched mitochondria
